Results reported in ChEMBL document CHEMBL1201862, “PubChem BioAssay data set” (2004).
Calls of active or inactive are those of the source.

Legend:
[1] = target: T1, Fatty acid synthase (Homo sapiens, UniProt P49327); assay: inhibition of human FAS-TE enzyme activity – biochemical, endpoint fluorescence intensity, uHTS hits, dose response (AID 624327); assay type: functional;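 note: fluorescence from hydrolysis of an O-methyl fluorescein acyl ester substrate by the enzyme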
[2] = target: T1, Fatty acid synthase; assay: inhibition of human FAS-TE enzyme activity – biochemical, kinetic fluorescence intensity, dose response (AID 624326); assay type: functional;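 note: rate of fluorescence rise from hydrolysis of a fluorogenic O-methyl fluorescein ester substrate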
[3] = activation of miR-122 Renilla sensor silencing – cell-based, Huh7 psiCHECK-miR122, Renilla luciferase, cherry-picked, dose response (AID 651956); assay type: functional;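 note: huh7 hepatoma cells stably carrying a psiCHECK-2 miR-122 sensor plasmid; renilla luciferase signal reporting endogenous miR-122 activity after 48 h compound exposure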
[4] = target: Large T antigen (Simian virus 40, UniProt P03070); assay type: functional, Betapolyomavirus macacae;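 note: Confirmatory-stage PubChem screen for compounds that inhibit SV40 T antigen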
[5] = A Cell Based Secondary Assay To Explore Cytotoxicity of Compounds that Sensitize Mycobacterium Tuberculosis to Beta-Lactam Antibiotics.; assay type: functional
[6] = target: Cytochrome P450 2D6 (Homo sapiens, UniProt P10635);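 note: CYP2D6 member of a cytochrome P450 panel assay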
[7] = target: T2, Cytochrome P450 1A2 (Homo sapiens, UniProt P05177);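 note: PubChem cytochrome P450 panel assay, CYP1A2 panel member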
T2 sequence (P05177 whole entry): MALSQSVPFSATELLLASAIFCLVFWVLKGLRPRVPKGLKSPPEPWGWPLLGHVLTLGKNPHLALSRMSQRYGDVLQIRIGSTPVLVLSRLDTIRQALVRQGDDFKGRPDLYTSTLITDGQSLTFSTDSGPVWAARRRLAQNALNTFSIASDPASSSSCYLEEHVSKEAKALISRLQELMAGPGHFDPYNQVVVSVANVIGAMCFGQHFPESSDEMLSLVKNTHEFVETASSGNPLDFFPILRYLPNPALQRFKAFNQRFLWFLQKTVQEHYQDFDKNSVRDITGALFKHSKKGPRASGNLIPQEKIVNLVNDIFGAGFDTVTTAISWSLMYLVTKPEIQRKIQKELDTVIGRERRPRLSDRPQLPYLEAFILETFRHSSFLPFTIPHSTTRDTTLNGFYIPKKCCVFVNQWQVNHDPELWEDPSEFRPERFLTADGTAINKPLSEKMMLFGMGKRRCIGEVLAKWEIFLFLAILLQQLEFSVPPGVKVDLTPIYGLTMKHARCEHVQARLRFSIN

[8] = target: T3, Small ubiquitin-related modifier 1 (Homo sapiens, UniProt P63165); assay: SUMO1 protein interaction blockers, potency – biochemical, fluorescence polarization, uHTS hits, dose response (AID 624382); assay type: functional; conditions: read-out: IC50_Mean
[9] = target: T3, Small ubiquitin-related modifier 1; assay: SUMO1 protein-protein binding blockers, potency – biochemical, FRET, dose response (AID 624383); assay type: functional; conditions: read-out: IC50_Mean
[10] = target: T4, Rac GTPase-activating protein 1 (Homo sapiens, UniProt Q9H0H5); assay: blockers of MgcRacGAP-driven Rac1 GTP hydrolysis – biochemical, ADP Hunter fluorescence, primary and confirmatory, confirmation (AID 624330); assay type: functional
T4 sequence (Q9H0H5 whole entry): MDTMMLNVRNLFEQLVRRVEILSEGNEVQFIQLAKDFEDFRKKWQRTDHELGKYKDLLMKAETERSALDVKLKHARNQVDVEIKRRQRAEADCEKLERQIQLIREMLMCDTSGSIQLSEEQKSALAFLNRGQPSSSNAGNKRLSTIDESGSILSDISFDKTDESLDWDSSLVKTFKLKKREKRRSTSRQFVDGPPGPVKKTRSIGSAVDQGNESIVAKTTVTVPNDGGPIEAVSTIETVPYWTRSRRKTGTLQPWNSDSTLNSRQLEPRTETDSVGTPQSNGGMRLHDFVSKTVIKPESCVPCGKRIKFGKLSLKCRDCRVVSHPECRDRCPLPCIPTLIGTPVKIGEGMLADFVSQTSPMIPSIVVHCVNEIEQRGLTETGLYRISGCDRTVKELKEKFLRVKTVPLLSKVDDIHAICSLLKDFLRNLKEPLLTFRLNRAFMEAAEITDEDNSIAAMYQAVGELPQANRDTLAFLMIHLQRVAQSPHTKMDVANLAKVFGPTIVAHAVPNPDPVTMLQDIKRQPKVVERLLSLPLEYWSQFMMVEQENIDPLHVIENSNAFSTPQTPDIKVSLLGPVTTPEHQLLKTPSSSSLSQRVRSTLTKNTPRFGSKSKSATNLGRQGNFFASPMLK

[11] = tested on: Escherichia coli; assay: microbe, parasite or virus in culture
[12] = target: Cytochrome P450 2C19 (Homo sapiens, UniProt P33261); assay: Cytochrome panel assay with activity outcomes. Panel member name: p450-cyp2c19 Compounds with AC50 equal or less than 10 uM are considered active; assay type: functional; conditions: read-out: AC50
[13] = target: Cytochrome P450 2C9 (Homo sapiens, UniProt P11712)
[14] = target: T5, Tyrosine-protein phosphatase non-receptor type 11 (Homo sapiens, UniProt Q06124); assay: PTPN11 enzyme inhibitors – biochemical, selectivity assay for STEP inhibitor project, dose response (AID 602367); assay type: functional; conditions: read-out: IC50_Mean
T5 sequence (Q06124 whole entry): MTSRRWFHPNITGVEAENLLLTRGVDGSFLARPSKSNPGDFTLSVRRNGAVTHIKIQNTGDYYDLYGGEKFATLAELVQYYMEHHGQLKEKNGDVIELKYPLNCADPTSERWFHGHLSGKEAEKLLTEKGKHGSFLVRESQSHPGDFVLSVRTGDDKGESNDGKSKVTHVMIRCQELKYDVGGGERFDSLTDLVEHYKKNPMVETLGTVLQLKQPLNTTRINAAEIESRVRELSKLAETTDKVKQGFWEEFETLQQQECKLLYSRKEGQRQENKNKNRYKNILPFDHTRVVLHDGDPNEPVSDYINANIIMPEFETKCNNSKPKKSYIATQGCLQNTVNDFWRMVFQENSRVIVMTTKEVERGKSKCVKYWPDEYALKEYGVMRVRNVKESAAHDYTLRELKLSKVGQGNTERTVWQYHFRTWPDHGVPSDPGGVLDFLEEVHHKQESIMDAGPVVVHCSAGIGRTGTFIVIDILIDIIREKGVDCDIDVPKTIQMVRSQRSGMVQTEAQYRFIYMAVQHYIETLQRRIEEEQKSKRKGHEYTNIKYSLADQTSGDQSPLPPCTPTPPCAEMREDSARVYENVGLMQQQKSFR

[15] = target: Dual specificity protein phosphatase 3 (Homo sapiens, UniProt P51452); assay: VHR phosphatase inhibition, dose response, selectivity assay for STEP inhibitor project, biochemical (AID 602374); assay type: functional; conditions: read-out: IC50_Mean
[16] = target: T6, Tyrosine-protein phosphatase non-receptor type 5 (Homo sapiens, UniProt P54829); assay: PTPN5 enzyme inhibition – biochemical, fluorescence intensity, uHTS hits, confirmation (AID 602372); assay type: functional; conditions: read-out: IC50_Mean
T6 sequence (P54829 whole entry): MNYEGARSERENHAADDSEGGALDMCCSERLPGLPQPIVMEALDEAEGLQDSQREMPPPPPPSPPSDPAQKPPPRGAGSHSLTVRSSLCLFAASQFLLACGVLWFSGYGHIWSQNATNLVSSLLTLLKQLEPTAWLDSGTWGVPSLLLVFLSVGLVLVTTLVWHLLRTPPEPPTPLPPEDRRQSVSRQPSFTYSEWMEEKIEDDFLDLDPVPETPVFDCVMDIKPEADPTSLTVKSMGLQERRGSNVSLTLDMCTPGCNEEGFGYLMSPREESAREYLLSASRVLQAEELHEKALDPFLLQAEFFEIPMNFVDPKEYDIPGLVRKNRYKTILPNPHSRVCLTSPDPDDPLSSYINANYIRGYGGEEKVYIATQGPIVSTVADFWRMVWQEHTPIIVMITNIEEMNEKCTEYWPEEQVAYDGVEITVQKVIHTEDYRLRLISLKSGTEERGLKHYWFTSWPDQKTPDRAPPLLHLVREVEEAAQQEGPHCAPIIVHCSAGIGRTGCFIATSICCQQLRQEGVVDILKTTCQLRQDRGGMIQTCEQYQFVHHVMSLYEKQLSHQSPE

[17] = target: FAD-linked sulfhydryl oxidase ALR (Homo sapiens, UniProt P55789); assay: ALR-catalysed DTT oxidation blockers – biochemical, H2O2 detection, luminescence, cherry-pick, dose response (AID 493248)
[18] = cells
[19] = target: T7, Sentrin-specific protease 8 (Homo sapiens, UniProt Q96LD8); assay type: functional
T7 sequence (Q96LD8 whole entry): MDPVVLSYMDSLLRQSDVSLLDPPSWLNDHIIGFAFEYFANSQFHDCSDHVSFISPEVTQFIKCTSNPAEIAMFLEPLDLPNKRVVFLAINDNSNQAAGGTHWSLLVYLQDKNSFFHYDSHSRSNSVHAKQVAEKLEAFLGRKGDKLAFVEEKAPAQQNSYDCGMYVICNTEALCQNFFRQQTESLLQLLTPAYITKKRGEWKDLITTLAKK

[20] = target: T7, Sentrin-specific protease 8; assay type: functional; remark: listed apart in the source
[21] = viability of uninfected HEp-2 cells – cell-based, HTS, cytotoxicity control for RSV inhibitor project, dose response (AID 2410); assay type: functional; conditions: human respiratory syncytial virus
[22] = tested on: Escherichia coli; assay: microbe, parasite or virus in culture; remark: listed apart in the source

T3 sequence (P63165 whole entry): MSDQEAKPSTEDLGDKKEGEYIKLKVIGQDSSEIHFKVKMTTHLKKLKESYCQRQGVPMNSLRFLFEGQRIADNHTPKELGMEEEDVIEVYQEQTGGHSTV
T1 sequence (P49327 whole entry): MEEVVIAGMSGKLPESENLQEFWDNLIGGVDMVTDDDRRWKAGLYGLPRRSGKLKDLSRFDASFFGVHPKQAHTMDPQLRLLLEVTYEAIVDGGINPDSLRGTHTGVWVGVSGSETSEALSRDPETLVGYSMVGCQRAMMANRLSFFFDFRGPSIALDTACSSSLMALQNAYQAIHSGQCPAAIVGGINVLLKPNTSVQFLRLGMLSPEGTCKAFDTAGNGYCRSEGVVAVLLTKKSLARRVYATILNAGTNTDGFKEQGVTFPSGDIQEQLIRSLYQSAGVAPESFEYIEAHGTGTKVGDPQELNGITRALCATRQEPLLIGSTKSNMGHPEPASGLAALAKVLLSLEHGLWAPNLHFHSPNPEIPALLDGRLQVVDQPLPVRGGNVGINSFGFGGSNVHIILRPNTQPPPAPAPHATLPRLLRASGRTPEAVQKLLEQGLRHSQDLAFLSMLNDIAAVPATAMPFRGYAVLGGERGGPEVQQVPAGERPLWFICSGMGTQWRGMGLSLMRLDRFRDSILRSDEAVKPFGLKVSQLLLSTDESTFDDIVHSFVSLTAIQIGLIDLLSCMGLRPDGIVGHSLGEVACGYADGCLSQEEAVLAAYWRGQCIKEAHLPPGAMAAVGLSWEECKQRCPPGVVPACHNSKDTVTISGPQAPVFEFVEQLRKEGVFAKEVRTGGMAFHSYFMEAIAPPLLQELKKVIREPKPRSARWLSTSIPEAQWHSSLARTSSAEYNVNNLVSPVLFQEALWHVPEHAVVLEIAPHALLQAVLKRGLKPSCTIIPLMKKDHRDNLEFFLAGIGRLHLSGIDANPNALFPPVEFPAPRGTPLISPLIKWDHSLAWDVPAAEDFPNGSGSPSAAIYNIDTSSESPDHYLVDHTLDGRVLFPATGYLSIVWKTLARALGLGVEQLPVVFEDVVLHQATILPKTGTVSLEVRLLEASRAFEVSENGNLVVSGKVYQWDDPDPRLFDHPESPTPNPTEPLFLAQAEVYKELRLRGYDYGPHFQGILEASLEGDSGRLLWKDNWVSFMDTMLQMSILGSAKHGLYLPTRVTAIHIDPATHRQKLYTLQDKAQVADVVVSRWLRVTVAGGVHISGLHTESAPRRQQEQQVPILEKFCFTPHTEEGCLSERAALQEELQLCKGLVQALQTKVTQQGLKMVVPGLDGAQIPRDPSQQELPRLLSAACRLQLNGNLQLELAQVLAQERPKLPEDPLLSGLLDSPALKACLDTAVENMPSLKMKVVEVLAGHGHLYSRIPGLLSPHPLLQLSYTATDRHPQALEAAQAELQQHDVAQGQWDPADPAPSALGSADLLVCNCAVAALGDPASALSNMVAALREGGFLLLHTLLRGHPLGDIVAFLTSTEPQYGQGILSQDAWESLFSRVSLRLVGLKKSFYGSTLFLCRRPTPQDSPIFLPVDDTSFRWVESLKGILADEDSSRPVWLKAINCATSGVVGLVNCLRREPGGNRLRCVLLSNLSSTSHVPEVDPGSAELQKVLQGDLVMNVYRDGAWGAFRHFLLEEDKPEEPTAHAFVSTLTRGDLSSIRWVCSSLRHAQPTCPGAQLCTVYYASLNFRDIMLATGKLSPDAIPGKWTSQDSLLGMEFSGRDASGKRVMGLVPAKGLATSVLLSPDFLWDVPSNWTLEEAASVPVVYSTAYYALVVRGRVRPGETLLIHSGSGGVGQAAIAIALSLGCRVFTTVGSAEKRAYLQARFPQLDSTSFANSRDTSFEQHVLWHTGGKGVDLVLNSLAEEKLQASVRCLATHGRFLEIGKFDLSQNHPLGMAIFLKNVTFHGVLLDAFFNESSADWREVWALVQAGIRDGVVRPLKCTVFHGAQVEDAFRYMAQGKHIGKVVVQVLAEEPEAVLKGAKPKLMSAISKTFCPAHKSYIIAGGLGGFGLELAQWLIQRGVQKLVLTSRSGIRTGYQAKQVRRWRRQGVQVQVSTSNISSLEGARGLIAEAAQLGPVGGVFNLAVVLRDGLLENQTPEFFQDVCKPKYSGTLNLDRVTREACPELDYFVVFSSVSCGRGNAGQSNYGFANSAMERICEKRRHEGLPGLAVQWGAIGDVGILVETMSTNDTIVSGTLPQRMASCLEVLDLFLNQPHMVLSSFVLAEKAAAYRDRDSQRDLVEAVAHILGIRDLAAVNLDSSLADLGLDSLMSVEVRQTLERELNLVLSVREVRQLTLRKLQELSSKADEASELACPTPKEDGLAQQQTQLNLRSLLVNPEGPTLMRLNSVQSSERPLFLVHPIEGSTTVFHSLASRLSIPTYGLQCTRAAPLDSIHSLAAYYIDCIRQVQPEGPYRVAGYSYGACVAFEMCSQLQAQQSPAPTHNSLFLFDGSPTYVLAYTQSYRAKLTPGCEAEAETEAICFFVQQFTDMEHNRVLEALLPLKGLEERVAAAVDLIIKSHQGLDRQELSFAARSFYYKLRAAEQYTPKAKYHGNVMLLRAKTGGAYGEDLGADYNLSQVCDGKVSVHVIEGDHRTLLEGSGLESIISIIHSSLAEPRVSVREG
Large T antigen, sequence (P03070 whole entry): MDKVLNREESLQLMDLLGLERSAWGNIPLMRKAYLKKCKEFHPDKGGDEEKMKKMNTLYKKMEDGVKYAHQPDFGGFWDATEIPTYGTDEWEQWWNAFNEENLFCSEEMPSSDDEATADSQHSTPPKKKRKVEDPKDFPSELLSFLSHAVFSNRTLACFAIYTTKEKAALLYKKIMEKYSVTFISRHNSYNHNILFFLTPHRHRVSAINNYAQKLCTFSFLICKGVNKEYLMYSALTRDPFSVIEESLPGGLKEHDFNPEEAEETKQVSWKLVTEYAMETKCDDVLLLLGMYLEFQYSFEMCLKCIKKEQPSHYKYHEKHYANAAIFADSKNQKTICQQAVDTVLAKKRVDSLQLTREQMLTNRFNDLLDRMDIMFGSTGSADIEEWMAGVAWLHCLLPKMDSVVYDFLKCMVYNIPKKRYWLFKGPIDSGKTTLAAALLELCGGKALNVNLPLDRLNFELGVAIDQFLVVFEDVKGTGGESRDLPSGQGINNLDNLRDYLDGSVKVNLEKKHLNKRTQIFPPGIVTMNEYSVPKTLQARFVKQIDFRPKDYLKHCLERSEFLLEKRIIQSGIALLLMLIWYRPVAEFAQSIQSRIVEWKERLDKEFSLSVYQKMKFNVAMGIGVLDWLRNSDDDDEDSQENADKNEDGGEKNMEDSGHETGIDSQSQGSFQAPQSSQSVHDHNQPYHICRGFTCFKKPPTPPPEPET
Dual specificity protein phosphatase 3, sequence (P51452 whole entry): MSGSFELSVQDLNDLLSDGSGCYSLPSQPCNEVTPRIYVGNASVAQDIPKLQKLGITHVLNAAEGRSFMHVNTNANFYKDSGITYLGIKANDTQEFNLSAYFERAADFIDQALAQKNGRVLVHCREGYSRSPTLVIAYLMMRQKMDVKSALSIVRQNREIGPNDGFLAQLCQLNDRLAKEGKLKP
Cytochrome P450 2C9, sequence (P11712 whole entry): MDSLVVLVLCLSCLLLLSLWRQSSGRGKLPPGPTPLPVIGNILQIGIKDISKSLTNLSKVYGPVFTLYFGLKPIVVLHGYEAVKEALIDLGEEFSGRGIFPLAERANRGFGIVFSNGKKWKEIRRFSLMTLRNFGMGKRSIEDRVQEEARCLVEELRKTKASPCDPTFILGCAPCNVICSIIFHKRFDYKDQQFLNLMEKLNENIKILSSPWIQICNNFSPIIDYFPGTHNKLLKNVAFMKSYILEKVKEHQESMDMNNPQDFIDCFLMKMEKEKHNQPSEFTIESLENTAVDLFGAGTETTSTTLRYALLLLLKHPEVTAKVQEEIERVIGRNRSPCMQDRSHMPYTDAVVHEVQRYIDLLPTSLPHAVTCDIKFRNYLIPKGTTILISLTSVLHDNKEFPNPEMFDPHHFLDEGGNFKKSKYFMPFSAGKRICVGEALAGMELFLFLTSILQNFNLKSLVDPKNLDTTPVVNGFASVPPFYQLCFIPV
FAD-linked sulfhydryl oxidase ALR, sequence (P55789 whole entry): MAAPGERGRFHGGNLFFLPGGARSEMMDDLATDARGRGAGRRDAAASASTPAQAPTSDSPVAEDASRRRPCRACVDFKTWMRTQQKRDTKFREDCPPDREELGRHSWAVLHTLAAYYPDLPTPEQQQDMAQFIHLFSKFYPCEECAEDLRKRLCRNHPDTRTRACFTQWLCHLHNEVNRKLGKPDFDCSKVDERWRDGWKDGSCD
Cytochrome P450 2D6, sequence (P10635 whole entry): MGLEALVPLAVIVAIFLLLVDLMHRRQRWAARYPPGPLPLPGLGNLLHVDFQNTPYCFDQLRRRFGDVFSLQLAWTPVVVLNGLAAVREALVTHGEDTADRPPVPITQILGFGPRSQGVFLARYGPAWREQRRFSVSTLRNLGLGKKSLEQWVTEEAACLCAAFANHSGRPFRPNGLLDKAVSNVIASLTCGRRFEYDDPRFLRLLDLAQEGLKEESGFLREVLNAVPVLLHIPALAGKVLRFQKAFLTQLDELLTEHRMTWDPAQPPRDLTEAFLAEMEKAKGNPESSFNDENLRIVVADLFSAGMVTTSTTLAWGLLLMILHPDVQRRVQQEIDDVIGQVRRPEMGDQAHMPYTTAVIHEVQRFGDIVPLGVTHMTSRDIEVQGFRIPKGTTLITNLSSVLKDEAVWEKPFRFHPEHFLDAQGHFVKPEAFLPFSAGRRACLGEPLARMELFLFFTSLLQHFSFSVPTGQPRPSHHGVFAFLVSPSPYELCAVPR

O=C(COc1cc([N+](=O)[O-])cc2cccnc12)NCCC1=CCCCC1
IC50 [1]: 1.1 µM (active)
IC50 [2]: 0.778 µM (active)

CCCCCn1c(CN2CCN(c3cccc(Cl)c3)CC2)nc2c1c(=O)n(C)c(=O)n2C
IC50 [1]: 3.96 µM (active)
IC50 [2]: 4.64 µM (active)

CN1C(=O)c2cc(NC(=O)Nc3cccc(Cl)c3)ccc2OC[C@H]2O[C@@H](CC(=O)NCCc3ccncc3)CC[C@H]21
AC50 [3]: 31.4 µM (active)

CC(C)c1ccc(S(=O)(=O)N2CCN(CCC(=O)Nc3ccc(N(C)C)cc3)CC2)cc1
IC50 [4]: 15.1 µM (active)

COc1ccccc1CNC(=O)c1cc2c(C)nn(Cc3ccc(F)cc3)c2s1
CC50 [5]: > 40 µM (active)
AC50 [6]: 22.4 µM (inconclusive)
AC50 [7]: 31.6 µM (inconclusive)

COc1ccc(-c2cc(=O)c3c(C)cc(O)cc3o2)cc1
IC50 [8]: > 66.6 µM (inactive)
IC50 [9]: 8.68 µM (active)

COc1cc(/C=N/NC(=S)NCCN2CCOCC2)ccc1O
IC50 [4]: 6.95 µM (active)
IC50 [10]: 19.9 µM (active)

CC(C)(C)c1nnc(NC(=O)NS(=O)(=O)c2ccccc2)s1
AC50 [11]: 61.5 µM (active)
AC50 [12]: 39.8 µM (inconclusive)
AC50 [13]: 10 µM (inconclusive)

COCCCNC(=O)CC1C[C@H](C(=O)N2CCOCC2)[C@@]2(CCC3CCCC3)c3[nH]c4ccc(OC)cc4c3CCN2C1=O (stereo not given in full)
IC50 [1]: 11.5 µM (active)
IC50 [2]: 7.56 µM (active)

CC(=O)c1c(C)[nH]c(C(=O)OCC(=O)c2ccc3c(c2)NC(=O)CO3)c1C
IC50 [8]: > 66.6 µM (inactive)
IC50 [9]: 6.39 µM (active)

CC(NC(=O)Nc1cccc([N+](=O)[O-])c1)c1ccc2c(c1)OCO2 (stereo not given)
IC50 [1]: 2.18 µM (active)
IC50 [2]: 1.64 µM (active)

CCOc1ccc(C(=S)N2CCN(C)CC2)cc1
IC50 [14]: 3.9 µM (active)
IC50 [15]: 1.42 µM (active)
IC50 [16]: 24.6 µM (inactive)

Cc1cc(=O)oc2c(N)c(O)ccc12
IC50 [4]: 0.77 µM (active)
AC50 [17]: 1.32 µM (active)

C/C=C/c1ccc([C@@H]2[C@@H](CO)N(C(C)=O)[C@@H]2CN(C)C(=O)c2ccccn2)cc1
AC50 [3]: 39.6 µM (active)

CC(=O)N1CCC(N(CCN2CCOCC2)C(=S)Nc2ccc(C)cc2)CC1
IC50 [14]: 17.9 µM (active)
IC50 [15]: 3.44 µM (active)
IC50 [16]: > 80 µM (inactive)

CCn1c2ccc(C)cc2c2nnc(NN)nc21
IC50 [18]: 17.4 µM (active)
IC50 [19]: 8.84 µM (active)
IC50 [20]: > 100 µM (inactive)
CC50 [21]: 32.3 µM (active)

O=C1Cc2ccccc2C(=O)N1OCc1ccc(Cl)cc1
IC50 [19]: 11 µM (active)
IC50 [20]: 11.8 µM (active)

O=C(NC1CC1)C1CCN(C2CCN(C(=O)Cc3ccc(F)cc3)CC2)CC1
AC50 [11]: 50 µM (active)
AC50 [22]: 26.8 µM (active)

O=C(c1ccccc1)N1CCN(c2ccc([N+](=O)[O-])c(NCC3CCCO3)c2)CC1 (stereo not given)
AC50 [11]: 40.2 µM (active)
AC50 [22]: 105 µM (active)

CCC(C)N1CCC2(CC1)N=c1c3c(O)c4c(O)c(C)c5c(c4c1=N2)C(=O)[C@@](C)(OC=C[C@H](OC)[C@@H](C)[C@@H](OC(C)=O)[C@H](C)[C@H](O)[C@H](C)[C@@H](O)[C@@H](C)C=CC=C(C)C(=O)N3)O5 (stereo not given in full)
AC50 [11]: 7.88 µM (active)

Cc1n[nH]c(-c2cccnc2)c1N=NN(C)C
AC50 [11]: 2.15 µM (active)
AC50 [22]: 0.628 µM (active)

Cc1ccc(/C=N\NC(=O)COc2ccc(C)cc2[N+](=O)[O-])cc1
IC50 [4]: > 100 µM (active)
